Assays:
Format in all cases: cell-based
[1] = tested on: E. coli DH5α; assay: Antibacterial activity: MIC and growth curve against E. coli DH5α in 96-well plate; details: minimal inhibitory concentration against E. coli DH5α; 96-well plate, 5×10^5 CFU/mL, 37° C., judged after 8 h
Procedure, shortened: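 Log-phase bacteria (OD600 ~0.5) resuspended in LB at 5×10^5 CFU/mL, exposed to recombinant protein at 50, 25, 12.5 μg/mL final in triplicate, 37 °C shaking at 175 rpm. OD600 read every 30 min; MIC is lowest concentration showing no growth.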

[2] = tested on: E. coli BL21; assay: MIC against Gram-negative bacteria: E. coli BL21; details: for MIC against E. coli BL21 / MIC (μg/mL) E. coli BL21 / MIC E. coli BL21: 5×10^5 CFU/mL; for MIC E. coli BL21: two-fold serial dilution
Procedure, shortened: (§1)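 Bacteria grown in LB at 37° C with shaking to McFarland 0.5, pelleted and resuspended in fresh LB, then seeded at 5×10^5 CFU/mL per well. Purified recombinant human EGF domain proteins were two-fold serially diluted in triplicate and plates shaken at 37° C, 175 rpm. MIC is the lowest protein concentration with no bacterial growth.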

[3] = tested on: Pseudomonas aeruginosa; assay: MIC against Gram-negative bacteria: Pseudomonas aeruginosa; details: for MIC against P. aeruginosa / MIC (μg/mL) P. aeruginosa / MIC P. aeruginosa: 5×10^5 CFU/mL; for MIC P. aeruginosa: two-fold serial dilution
Procedure, shortened: as §1

[4] = tested on: Klebsiella pneumonia; assay: MIC against Gram-negative bacteria: Klebsiella pneumonia; details: for MIC against K. pneumonia / MIC (μg/mL) K. pneumonia / MIC K. pneumonia: 5×10^5 CFU/mL; for MIC K. pneumonia: two-fold serial dilution
Procedure, shortened: as §1

[5] = tested on: Enterobacter cloacae; assay: MIC against Gram-negative bacteria: Enterobacter cloacae; details: for MIC against E. cloacae / MIC (μg/mL) E. cloacae / MIC E. cloacae: 5×10^5 CFU/mL; for MIC E. cloacae: two-fold serial dilution
Procedure, shortened: as §1

[6] = tested on: Aeromonas hydrophila; assay: MIC against Gram-negative bacteria: Aeromonas hydrophila; details: for MIC against A. hydrophila / MIC (μg/mL) A. hydrophila / MIC A. hydrophila: 5×10^5 CFU/mL; for MIC A. hydrophila: two-fold serial dilution
Procedure, shortened: as §1

[7] = tested on: Citrobacter diversus; assay: MIC against Gram-negative bacteria: Citrobacter diversus; details: for MIC against C. diversus / MIC (μg/mL) C. diversus / MIC C. diversus: 5×10^5 CFU/mL; for MIC C. diversus: two-fold serial dilution
Procedure, shortened: as §1

[8] = tested on: Moraxella catarrhalis; assay: MIC against Gram-negative bacteria: Moraxella catarrhalis; details: for MIC against M. catarrhalis / MIC (μg/mL) M. catarrhalis / MIC M. catarrhalis: 5×10^5 CFU/mL; for MIC M. catarrhalis: two-fold serial dilution
Procedure, shortened: as §1

[9] = tested on: Proteus mirabilis; assay: MIC against Gram-negative bacteria: Proteus mirabilis; details: for MIC against P. mirabilis / MIC (μg/mL) P. mirabilis / MIC P. mirabilis: 5×10^5 CFU/mL; for MIC P. mirabilis: two-fold serial dilution
Procedure, shortened: as §1

[10] = tested on: Proteus vulgaris; assay: MIC against Gram-negative bacteria: Proteus vulgaris; details: for MIC against P. vulgaris / MIC (μg/mL) P. vulgaris / MIC P. vulgaris: 5×10^5 CFU/mL; for MIC P. vulgaris: two-fold serial dilution
Procedure, shortened: as §1

[11] = tested on: Serratia marcescens; assay: MIC against Gram-negative bacteria: Serratia marcescens; details: for MIC against S. marcescens / MIC (μg/mL) S. marcescens / MIC S. marcescens: 5×10^5 CFU/mL; for MIC S. marcescens: two-fold serial dilution
Procedure, shortened: as §1

[12] = E. coli BL21, 10 h cultivation at 37° C.
[13] = Pseudomonas aeruginosa, 10 h cultivation at 37° C.
[14] = Klebsiella pneumonia, 10 h cultivation at 37° C.
[15] = Enterobacter cloacae, 10 h cultivation at 37° C.
[16] = Aeromonas hydrophila, 10 h cultivation at 37° C.
[17] = Citrobacter diversus, 10 h cultivation at 37° C.
[18] = Moraxella catarrhalis, 10 h cultivation at 37° C.
[19] = Proteus mirabilis, 10 h cultivation at 37° C.
[20] = Proteus vulgaris, 10 h cultivation at 37° C.
[21] = Serratia marcescens, 10 h cultivation at 37° C.
[22] = P. aeruginosa, 10 h cultivation at 37° C.
[23] = K. pneumonia, 10 h cultivation at 37° C.
[24] = E. cloacae, 10 h cultivation at 37° C.
[25] = A. hydrophila, 10 h cultivation at 37° C.
[26] = C. diversus, 10 h cultivation at 37° C.
[27] = M. catarrhalis, 10 h cultivation at 37° C.
[28] = P. mirabilis, 10 h cultivation at 37° C.
[29] = P. vulgaris, 10 h cultivation at 37° C.
[30] = S. marcescens, 10 h cultivation at 37° C.

Substance	MIC [1] [µg/mL]	MIC (μg/mL) E. coli BL21 [2, 12] [µg/mL]	MIC (μg/mL) P. aeruginosa [3, 22] [µg/mL]	MIC (μg/mL) K. pneumonia [4, 23] [µg/mL]	MIC (μg/mL) E. cloacae [5, 24] [µg/mL]	MIC (μg/mL) A. hydrophila [6, 25] [µg/mL]	MIC (μg/mL) C. diversus [7, 26] [µg/mL]	MIC (μg/mL) M. catarrhalis [8, 27] [µg/mL]	MIC (μg/mL) P. mirabilis [9, 28] [µg/mL]	MIC (μg/mL) P. vulgaris [10, 29] [µg/mL]	MIC (μg/mL) S. marcescens [11, 30] [µg/mL]	other results
PRT1439 (EEDECAKPDRGGCEQRCLNTLGSYQCACEPGYELGPDRRSCE; listed as Homo sapiens)	50											MIC against E. coli BL21 [2, 12]: 12.5 µg/mL; MIC against P. aeruginosa [3, 13]: 50 µg/mL; MIC against K. pneumonia [4, 14]: 12.5 µg/mL; MIC against E. cloacae [5, 15]: 50 µg/mL; MIC against A. hydrophila [6, 16]: 12.5 µg/mL; MIC against C. diversus [7, 17]: 50 µg/mL; MIC against M. catarrhalis [8, 18]: 12.5 µg/mL; MIC against P. mirabilis [9, 19]: 50 µg/mL; MIC against P. vulgaris [10, 20]: 12.5 µg/mL; MIC against S. marcescens [11, 21]: 50 µg/mL
PRT573 (CPCPDGPDSGRQFARSCYQDPVTLQLACVCDPGYIGSRCDDCASGYFGNPSEVGGSCQP; listed as Homo sapiens)	25											MIC against E. coli BL21 ([2]; 96-well plate, 37° C., 10 h): 12.5 µg/mL; MIC against P. aeruginosa ([3]; 96-well plate, 37° C., 10 h): 25 µg/mL; MIC against K. pneumonia ([4]; 96-well plate, 37° C., 10 h): 12.5 µg/mL; MIC against E. cloacae ([5]; 96-well plate, 37° C., 10 h): 25 µg/mL; MIC against A. hydrophila ([6]; 96-well plate, 37° C., 10 h): 12.5 µg/mL; MIC against C. diversus ([7]; 96-well plate, 37° C., 10 h): 12.5 µg/mL; MIC against M. catarrhalis ([8]; 96-well plate, 37° C., 10 h): 50 µg/mL; MIC against P. mirabilis ([9]; 96-well plate, 37° C., 10 h): 12.5 µg/mL; MIC against P. vulgaris ([10]; 96-well plate, 37° C., 10 h): 50 µg/mL; MIC against S. marcescens ([11]; 96-well plate, 37° C., 10 h): 12.5 µg/mL
PRT767 (AIDLCAEGTHGCEHHCVNSPGSYFCHCQVGFVLQQDQ; listed as Homo sapiens)	25	50	25	12.5	50	12.5	25	50	25	12.5	50	
PRT161 (KVDPCASSPCQNNGTCYVDGVHFTCNCSPGFTGPTCA; listed as Homo sapiens)	12.5	12.5	25	12.5	25	50	25	12.5	25	50	25	
PRT1293 (KLDFCAQDLNPCQHDSKCILTPKGFKCDCTPGYVGEHCD; listed as Homo sapiens)	25											MIC against E. coli BL21 ([2]; E. coli BL21, 96-well plate, 37° C., 10 h): 12.5 µg/mL; MIC against P. aeruginosa ([3]; Pseudomonas aeruginosa, 96-well plate, 37° C., 10 h): 25 µg/mL; MIC against K. pneumonia ([4]; Klebsiella pneumonia, 96-well plate, 37° C., 10 h): 50 µg/mL; MIC against E. cloacae ([5]; Enterobacter cloacae, 96-well plate, 37° C., 10 h): 12.5 µg/mL; MIC against A. hydrophila ([6]; Aeromonas hydrophila, 96-well plate, 37° C., 10 h): 50 µg/mL; MIC against C. diversus ([7]; Citrobacter diversus, 96-well plate, 37° C., 10 h): 12.5 µg/mL; MIC against M. catarrhalis ([8]; Moraxella catarrhalis, 96-well plate, 37° C., 10 h): 12.5 µg/mL; MIC against P. mirabilis ([9]; Proteus mirabilis, 96-well plate, 37° C., 10 h): 12.5 µg/mL; MIC against P. vulgaris ([10]; Proteus vulgaris, 96-well plate, 37° C., 10 h): 50 µg/mL; MIC against S. marcescens ([11]; Serratia marcescens, 96-well plate, 37° C., 10 h): 12.5 µg/mL
PRT792 (YGVLCAETCQCVNGGKCYHVSGACLCEAGFAGERCE; listed as Homo sapiens)	12.5	50	12.5	12.5	25	50	25	12.5	50	12.5	50	
PRT1369 (ASGSCPDDCNDQGRCVRGRCVCFPGYTGPSC; listed as Homo sapiens)	12.5											MIC against E. coli BL21 [2, 12]: 12.5 µg/mL; MIC against P. aeruginosa [3, 13]: 12.5 µg/mL; MIC against K. pneumonia [4, 14]: 12.5 µg/mL; MIC against E. cloacae [5, 15]: 25 µg/mL; MIC against A. hydrophila [6, 16]: 12.5 µg/mL; MIC against C. diversus [7, 17]: 12.5 µg/mL; MIC against M. catarrhalis [8, 18]: 12.5 µg/mL; MIC against P. mirabilis [9, 19]: 25 µg/mL; MIC against P. vulgaris [10, 20]: 12.5 µg/mL; MIC against S. marcescens [11, 21]: 25 µg/mL
PRT1090 (NNTRCLSNSCQNNSTCKDFSKDNDCSCSDTANNLDKDCD; listed as Homo sapiens)	25											MIC E. coli BL21 ([2]; 10 h cultivation at 37° C.): 12.5 µg/mL; MIC P. aeruginosa ([3]; 10 h cultivation at 37° C.): 50 µg/mL; MIC K. pneumonia ([4]; 10 h cultivation at 37° C.): 12.5 µg/mL; MIC E. cloacae ([5]; 10 h cultivation at 37° C.): 50 µg/mL; MIC A. hydrophila ([6]; 10 h cultivation at 37° C.): 12.5 µg/mL; MIC C. diversus ([7]; 10 h cultivation at 37° C.): 25 µg/mL; MIC M. catarrhalis ([8]; 10 h cultivation at 37° C.): 50 µg/mL; MIC P. mirabilis ([9]; 10 h cultivation at 37° C.): 25 µg/mL; MIC P. vulgaris ([10]; 10 h cultivation at 37° C.): 12.5 µg/mL; MIC S. marcescens ([11]; 10 h cultivation at 37° C.): 25 µg/mL
PRT805 (FGQNCSQDCPCHHGGQCDHVTGQCHCTAGYMGDRCQ; listed as Homo sapiens)	12.5	50	12.5	12.5	12.5	12.5	12.5	50	12.5	50	12.5	
PRT226 (DIDECESGAHQCSEAQTCVNFHGGYRCVDTNRCVEPYIQVSENRCL; listed as Homo sapiens)	50	25	12.5	25	50	12.5	50	12.5	12.5	12.5	12.5	
PRT213 (QNCTKTPCLPNAKCEIRNGIEACYCNMGFSGNGVTICE; listed as Homo sapiens)	12.5	12.5	12.5	12.5	50	12.5	50	12.5	25	50	25	
PRT987 (NVDDCPGHRCLNGGTCVDGVNTYNCQCPPEWTGQFCT; listed as Homo sapiens)	25											MIC [2, 12]: 12.5 µg/mL; MIC [3, 22]: 25 µg/mL; MIC [4, 23]: 50 µg/mL; MIC [5, 24]: 25 µg/mL; MIC [6, 25]: 12.5 µg/mL; MIC [7, 26]: 50 µg/mL; MIC [8, 27]: 12.5 µg/mL; MIC [9, 28]: 50 µg/mL; MIC [10, 29]: 12.5 µg/mL; MIC [11, 30]: 50 µg/mL
PRT1144 (NANDCLSNPCLHGRCTELINEYPCSCDADGTSTQCK; listed as Homo sapiens)	50											MIC E. coli BL21 ([2]; 10 h cultivation at 37° C.): 12.5 µg/mL; MIC P. aeruginosa ([3]; 10 h cultivation at 37° C.): 50 µg/mL; MIC K. pneumonia ([4]; 10 h cultivation at 37° C.): 12.5 µg/mL; MIC E. cloacae ([5]; 10 h cultivation at 37° C.): 50 µg/mL; MIC A. hydrophila ([6]; 10 h cultivation at 37° C.): 12.5 µg/mL; MIC C. diversus ([7]; 10 h cultivation at 37° C.): 25 µg/mL; MIC M. catarrhalis ([8]; 10 h cultivation at 37° C.): 50 µg/mL; MIC P. mirabilis ([9]; 10 h cultivation at 37° C.): 25 µg/mL; MIC P. vulgaris ([10]; 10 h cultivation at 37° C.): 12.5 µg/mL; MIC S. marcescens ([11]; 10 h cultivation at 37° C.): 25 µg/mL

From patent publication US9833497B2, “Human originated EGF domain proteins and use of the same” (CHENGDU SOURCEBIO LIMITED-LIABILITY COMPANY, priority 2013, dated 2017)
